This passage reports IC50 results from ChEMBL document CHEMBL3879881, “Substituted pyrazolyl compounds for the treatment of inflammation” (2005).

This assay deals with T1, Inhibitor of nuclear factor kappa-B kinase subunit beta (Homo sapiens, UniProt O14920).
T1 sequence (O14920 whole entry): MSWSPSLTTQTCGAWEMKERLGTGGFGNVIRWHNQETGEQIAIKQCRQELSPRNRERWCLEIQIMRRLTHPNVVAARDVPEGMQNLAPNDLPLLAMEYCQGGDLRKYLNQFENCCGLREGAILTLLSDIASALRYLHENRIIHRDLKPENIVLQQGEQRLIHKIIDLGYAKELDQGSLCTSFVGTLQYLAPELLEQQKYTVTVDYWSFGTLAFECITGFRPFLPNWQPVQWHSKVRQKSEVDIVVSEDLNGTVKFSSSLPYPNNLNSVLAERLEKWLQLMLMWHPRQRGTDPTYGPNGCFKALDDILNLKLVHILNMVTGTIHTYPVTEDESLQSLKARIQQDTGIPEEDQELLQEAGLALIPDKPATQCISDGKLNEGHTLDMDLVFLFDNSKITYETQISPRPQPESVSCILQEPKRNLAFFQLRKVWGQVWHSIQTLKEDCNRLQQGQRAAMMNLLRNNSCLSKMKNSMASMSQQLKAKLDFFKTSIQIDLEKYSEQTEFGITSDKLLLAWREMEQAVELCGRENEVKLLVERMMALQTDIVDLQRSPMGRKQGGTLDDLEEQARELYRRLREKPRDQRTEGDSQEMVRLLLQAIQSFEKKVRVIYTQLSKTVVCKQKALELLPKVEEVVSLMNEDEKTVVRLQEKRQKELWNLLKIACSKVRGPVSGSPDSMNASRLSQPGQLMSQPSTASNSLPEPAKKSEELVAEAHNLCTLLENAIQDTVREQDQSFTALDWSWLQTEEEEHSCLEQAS
Briefly: Inhibition of human recombinant C-terminal FLAG-epitope-tagged IKK2 expressed in baculovirus using biotinylated IkappaBalpha peptide as substrate assessed as decrease in [gamma-33P]-ATP incorporation in substrate after 30 mins by scintillation counting method.

In the case of `NC(=O)c1nn(-c2ccc3c(c2)OCO3)c2c1CCc1ccc(NC(=O)CN3CCCC3)cc1-2`, the IC50 is 1 to 10 µM.
Take `NC(=O)c1nn(-c2ccc(NC(=O)COCc3ccccc3)cc2)c2c1CCc1ccc(NC(=O)c3ccccc3Cl)cc1-2`: the IC50 is 1 to 10 µM.
On to `CC1Cc2c(C(N)=O)nn(-c3ccc(F)cc3)c2-c2cc(NC(=O)c3cccnc3Cl)ccc21` (centres undefined), for which the IC50 was at most 1 µM.
Take `NC(=O)c1nn(-c2ccc3c(c2)OCO3)c2c1CCc1ccc(NC(=O)c3ccoc3)cc1-2`: the IC50 is 1 to 10 µM.
As to `C[S+]([O-])c1ccc(Cl)c(C(=O)Nc2ccc3c(c2)-c2c(c(C(N)=O)nn2-c2ccc(S(C)(=O)=O)cc2)CC3)c1` (centres undefined), the IC50 is at most 1 µM.
Consider `CN(C)C/C=C/c1ccc(-n2nc(C(N)=O)c3c2-c2cc(NC(=O)c4ccccc4Cl)ccc2CC3)cc1`, for which the IC50 was in the range of 1 to 10 µM.
Take `NC(=O)c1nn(-c2ccc(S(N)(=O)=O)cc2)c2c1CCc1ccc(NS(=O)(=O)c3ccc(F)cc3F)cc1-2`: the IC50 is 10 to 100 µM.
For the compound `NC(=O)c1nn(-c2ccc(Cl)cc2)c2c1CCc1ccc(NC(=O)c3cnccc3Cl)cc1-2`, the IC50 was at most 1 µM.
The figure for `Cc1cccc(C(=O)Nc2ccc3c(c2)-c2c(c(C(N)=O)nn2-c2ccc(S(C)(=O)=O)cc2)CC3)c1` is 1 to 10 µM; for `NC(=O)c1nn(-c2ccc3c(c2)OCO3)c2c1CCc1ccc(NC(=O)c3cc(Cl)ncc3Cl)cc1-2` it is at most 1 µM.
With `NC(=O)c1nn(-c2ccc(S(N)(=O)=O)cc2)c2c1CCc1ccc(NC(=O)c3cccnc3)cc1-2`, the IC50 is at most 1 µM.
For `CCCS(=O)(=O)c1ccc(-n2nc(C(N)=O)c3c2-c2cc(NC(=O)c4cccnc4Cl)ccc2CC3)cc1`, the half-inhibitory concentration (IC50) is 1 to 10 µM.
In the case of `NC(=O)c1nn(-c2ccc3c(c2)OCO3)c2c1CCc1ccc(NC(=O)c3cc(Cl)cnc3Cl)cc1-2`, the IC50 is at most 1 µM.
Regarding `CN1CC=C(c2cc(C(=O)Nc3ccc4c(c3)-c3c(c(C(N)=O)nn3-c3ccc(F)cc3)CC4)c(Cl)cn2)CC1`, the 50% inhibitory concentration (IC50) is at most 1 µM.
For the compound `NC(=O)c1nn(-c2ccc(S(N)(=O)=O)cc2)c2c1CCc1ccc(NC(=O)Cc3ccccc3)cc1-2`, the IC50 lay in the range of 1 to 10 µM.
Turning to `NC(=O)c1nn(-c2ccc(S(N)(=O)=O)cc2)c2c1CCc1ccc(NC(=O)c3ccc(C(F)(F)F)cc3)cc1-2`, the IC50 was in the range of 1 to 10 µM.
For `NC(=O)c1nn(-c2cccc([N+](=O)[O-])c2)c2c1CCc1ccc(NC(=O)c3ccccc3Cl)cc1-2`, the IC50 is 1 to 10 µM.
Regarding `NC(=O)c1nn(-c2ccc(-c3cccc(CO)c3)cc2)c2c1CCc1ccc(NC(=O)c3ccccc3Cl)cc1-2`, the IC50 was 1 to 10 µM.
As to `NC(=O)c1nn(-c2ccc(S(N)(=O)=O)cc2)c2c1CCc1ccc(NC(=O)C3CC3)cc1-2`, the IC50 lay in the range of 1 to 10 µM.
On to `Cc1c(O)cccc1C(=O)Nc1ccc2c(c1)-c1c(c(C(N)=O)nn1-c1ccc(S(C)(=O)=O)cc1)CC2`, for which the IC50 is at most 1 µM.
The figure for `NC(=O)c1nn(-c2ccc3c(c2)OCO3)c2c1CCc1ccc(NC(=O)c3cccc(O)n3)cc1-2` is 1 to 10 µM; for `C#CCN(CC#C)S(=O)(=O)c1ccc(-n2nc(C(N)=O)c3c2-c2cc(NC(=O)c4ccccc4Cl)ccc2CC3)cc1` it is 1 to 10 µM; for `N#Cc1cc(C(=O)Nc2ccc3c(c2)-c2c(c(C(N)=O)nn2-c2ccc4c(c2)OCO4)CC3)c(Cl)cn1` it is at most 1 µM.
Consider `NC(=O)c1nn(-c2ccc(S(N)(=O)=O)cc2)c2c1CCc1ccc(NS(=O)(=O)c3cccc4cnccc34)cc1-2`, for which the half-inhibitory concentration (IC50) lay within 1 to 10 µM.
With `NC(=O)c1nn(-c2ccc(S(N)(=O)=O)cc2)c2c1CCc1ccc(NS(=O)(=O)c3cc(C(F)(F)F)cc(C(F)(F)F)c3)cc1-2`, the IC50 fell in the range of 1 to 10 µM.
In the case of `CC1Cc2c(C(N)=O)nn(-c3ccc(N)cc3F)c2-c2cc(NC(=O)c3ccncc3Cl)ccc21` (centres undefined) it was at most 1 µM; in that of `CN(C)CCc1cc(C(=O)Nc2ccc3c(c2)-c2c(c(C(N)=O)nn2-c2ccc(F)cc2)CC3)c(Cl)cn1`, at most 1 µM; in that of `CCN1CCN(c2cc(C(=O)Nc3ccc4c(c3)-c3c(c(C(N)=O)nn3-c3ccc(F)cc3)CC4)c(Cl)cn2)CC1`, at most 1 µM.
Turning to `COc1ccc(S(=O)(=O)Nc2ccc3c(c2)-c2c(c(C(N)=O)nn2-c2ccc(S(N)(=O)=O)cc2)CC3)cc1OC`, the IC50 fell in the range of 10 to 100 µM.
Consider `CNC(=O)/C=C/c1ccc(-n2nc(C(N)=O)c3c2-c2cc(N)ccc2CC3)cc1`, for which the IC50 lay within 1 to 10 µM.
For the compound `Cc1cccc(-n2nc(C(N)=O)c3c2-c2cc(NC(=O)c4ccccc4Cl)ccc2CC3)c1`, the IC50 is at most 1 µM.
In the case of `NC(=O)c1nn(-c2cccc(Cl)c2)c2c1CCc1ccc(NC(=O)c3ccccc3Cl)cc1-2` it was at most 1 µM.
The figure for `NC(=O)c1nn(-c2cccnc2)c2c1CCc1ccc(NC(=O)c3ccccc3Cl)cc1-2` is 1 to 10 µM; for `NC(=O)/C=C/c1ccc(-n2nc(C(N)=O)c3c2-c2cc(NC(=O)c4cccnc4Cl)ccc2CC3)cc1` it is at most 1 µM.
Take `NC(=O)c1nn(-c2ccc(F)cc2)c2c1CCc1ccc(NC(=O)c3cc(N4CCN(CCO)CC4)ncc3Cl)cc1-2`: the IC50 is at most 1 µM.
Regarding `CN(C)CC(=O)Nc1ccc(C(=O)Nc2ccc3c(c2)-c2c(c(C(N)=O)nn2-c2ccc4c(c2)OCO4)CC3)c(Cl)c1`, the half-maximal inhibitory concentration (IC50) is 1 to 10 µM.
For the compound `NC(=O)c1nn(-c2ccc(/C=C3\CCOC3=O)cc2)c2c1CCc1ccc(NC(=O)c3ccccc3Cl)cc1-2`, the concentration for half-maximal inhibition (IC50) was 1 to 10 µM.
As to `CC1Cc2c(C(N)=O)nn(-c3ccc(F)cc3)c2-c2cc(NC(=O)c3cc(N4CCN(C)CC4)ccc3Cl)ccc21` (centres undefined), the half-inhibitory concentration (IC50) was at most 1 µM.
With `NC(=O)c1nn(-c2ccc(S(N)(=O)=O)cc2)c2c1CCc1ccc(NS(=O)(=O)c3ccc(Cl)cc3Cl)cc1-2`, the IC50 is 1 to 10 µM.
For the compound `NC(=O)c1nn(-c2ccc(S(N)(=O)=O)cc2)c2c1CCc1ccc(NC(=O)c3ccccc3C(F)(F)F)cc1-2`, the concentration for half-maximal inhibition (IC50) is at most 1 µM.
In the case of `NC(=O)c1nn(-c2ccc(S(N)(=O)=O)cc2)c2c1CCc1ccc(NS(=O)(=O)c3ccc(F)cc3)cc1-2` it was 1 to 10 µM; in that of `CN1CCN(c2cc(C(=O)Nc3ccc4c(c3)-c3c(c(C(N)=O)nn3-c3ccc5c(c3)OCO5)CC4)c(Cl)cn2)CC1`, at most 1 µM; in that of `COCC(=O)Nc1ccc2c(c1)-c1c(c(C(N)=O)nn1-c1ccc(S(N)(=O)=O)cc1)CC2`, 1 to 10 µM.
Regarding `CN(C)CCOc1ccc(-n2nc(C(N)=O)c3c2-c2cc(NC(=O)c4ccccc4Cl)ccc2CC3)cc1`, the IC50 lay within 1 to 10 µM.
For the compound `COc1cccc(C(=O)Nc2ccc3c(c2)-c2c(c(C(N)=O)nn2-c2ccc(S(N)(=O)=O)cc2)CC3)c1`, the IC50 was at most 1 µM.
For the compound `NC(=O)c1nn(-c2ccc(OCC(O)CO)cc2)c2c1CCc1ccc(NC(=O)c3ccncc3Cl)cc1-2` (centres undefined), the IC50 is at most 1 µM.
In the case of `NC(=O)c1nn(-c2ccc(S(=O)(=O)C(F)(F)F)cc2)c2c1CCc1ccc(N)cc1-2` it was 1 to 10 µM; in that of `Cc1ccc(S(=O)(=O)Nc2ccc3c(c2)-c2c(c(C(N)=O)nn2-c2ccc(S(N)(=O)=O)cc2)CC3)cc1`, 10 to 100 µM; in that of `NC(=O)c1nn(-c2ccc(Br)cc2)c2c1CCc1ccc(N)cc1-2`, 1 to 10 µM.
Take `NC(=O)c1nn(-c2ccc(F)cc2)c2c1CCc1ccc(NC(=O)c3cc(-c4ccncc4)ncc3Cl)cc1-2`: the IC50 was at most 1 µM.
For `CN1CCCN(c2cc(C(=O)Nc3ccc4c(c3)-c3c(c(C(N)=O)nn3-c3ccc(F)cc3)CC4)c(Cl)cn2)CC1`, the IC50 was at most 1 µM.
Turning to `CN(C)CCCOc1ccc(-n2nc(C(N)=O)c3c2-c2cc(NC(=O)c4ccccc4Cl)ccc2CC3)cc1`, the IC50 was 1 to 10 µM.
Consider `CCCCS(=O)(=O)c1ccc(-n2nc(C(N)=O)c3c2-c2cc(NC(=O)c4ccccc4Cl)ccc2CC3)cc1`, for which the IC50 is 1 to 10 µM.
In the case of `Cc1ccccc1C(=O)Nc1ccc2c(c1)-c1c(c(C(N)=O)nn1-c1ccc3c(c1)OCO3)CC2` it was 1 to 10 µM; in that of `NC(=O)c1nn(-c2ccc(S(N)(=O)=O)cc2)c2c1CCc1ccc(N)cc1-2`, at most 1 µM.
As to `CSc1ccccc1C(=O)Nc1ccc2c(c1)-c1c(c(C(N)=O)nn1-c1ccc(S(C)(=O)=O)cc1)CC2`, the IC50 was 1 to 10 µM.
In the case of `C[S+]([O-])c1ccc(Cl)c(C(=O)Nc2ccc3c(c2)-c2c(c(C(N)=O)nn2-c2ccc(O)cc2)CC3)c1` (centres undefined), the IC50 was at most 1 µM.
`NC(=O)c1nn(-c2ccc(C(F)(F)F)cc2)c2c1CCc1ccc(NC(=O)c3ccccc3Cl)cc1-2`: the 50% inhibitory concentration (IC50) is 1 to 10 µM.
On to `NC(=O)c1nn(-c2ccc(S(N)(=O)=O)cc2)c2c1CCc1ccc(NC(=O)c3c(Cl)cccc3Cl)cc1-2`, for which the IC50 was at most 1 µM.
In the case of `CC(C)S(=O)(=O)Nc1ccc2c(c1)-c1c(c(C(N)=O)nn1-c1ccc(S(N)(=O)=O)cc1)CC2` it was 1 to 10 µM.
In the case of `NC(=O)c1nn(-c2ccc(S(N)(=O)=O)cc2)c2c1CCc1ccc(NC(=O)c3ccccc3Br)cc1-2` it was at most 1 µM.
As to `NC(=O)c1nn(-c2ccc(S(N)(=O)=O)cc2)c2c1CCc1ccc(NS(=O)(=O)c3cc(Cl)ccc3Cl)cc1-2`, the IC50 is 1 to 10 µM.
In the case of `CC(=O)/C=C/c1ccc(-n2nc(C(N)=O)c3c2-c2cc(NC(=O)c4ccccc4Cl)ccc2CC3)cc1`, the IC50 is at most 1 µM.
As to `CN(C)S(=O)(=O)c1ccc(-n2nc(C(N)=O)c3c2-c2cc(N)ccc2CC3)cc1`, the IC50 lay within 1 to 10 µM.
